A short description of this series: gradient 5% acetonitrile 3 min, to 50% in 2 min, to 85% in 15 min, held 3 min, 100 µL/min. The note with it: column: Zorbax Extend-C18 2.1 x 50 mm; eluents: water / acetonitrile, 0.1% formic acid. An outline of the steps:
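In both positive and negative ionization mode, a quadrupole time-of-flight mass spectrometer coupled to HPLC analyzed pure standards run in mixtures of ~100 molecules. The Zorbax Extend-C18 column (2.1 × 50 mm, 1.8 μm) was operated at 100 μL/min with water and acetonitrile, each containing 0.1% formic acid. The dead volume was 40 μL and the dwell volume 900 μL. Retention time came from adduct peaks that were computationally picked and individually inspected by hand.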
As to `Cc1ccn2c(Nc3ccccc3C)c(-c3cc(Br)ccc3F)nc2c1`, the RP-LC retention time is 814 s. Then `CCn1c(=O)c2ccccc2n(Cc2nc(-c3ccc(Cl)cc3)no2)c1=O`, with 1090 s; and `CCn1c(=O)sc2cc(S(=O)(=O)N3CCC(C(=O)NCc4ccccc4OC)CC3)ccc21`, with 881 s; and `Cc1ccc(S(=O)(=O)N2CCCCC2c2nncn2C)cc1F` (stereo unspecified), with 736 s.

Turning to `CC(C)c1nnc(-c2cccnc2N2CCN(C(=O)c3ccco3)CC2)o1`, the RP-LC retention time was found to be 735 s.

With `CCc1ccccc1NC(=O)Cn1cnc2nc(N3CCCC(C(=O)NC4CC4)C3)sc2c1=O` (stereo unspecified), the RP-LC retention time was 692 s. `COc1ccc(C2CC(=O)N(c3ccc(C)cc3)C(=O)C2)cc1OC` registered an RP-LC retention time of 831 s. Then `CCc1cccc(NS(=O)(=O)c2cc(-c3[nH]ncc3C(=O)N(C)C)oc2C)c1`, with 718 s; and `Cc1cccc(C(C)c2cnc[nH]2)c1C` (stereo unspecified), with 689 s; and `O=C(c1ccco1)N1CCc2cc(-c3ccno3)ccc21`, with 815 s. To `Cc1ccc2nc(-c3cccc(S(=O)(=O)N4CCCC4)c3)cn2c1` belongs 657 s; to `CCC(CC)NC(=O)C1Cn2cccc2C(=O)N1CC(C)C` (stereo unspecified), 756 s; to `O=C(CCn1cnc2cc(-c3noc(-c4cncc(Br)c4)n3)ccc21)N1CCCCCC1`, 814 s. To `Cc1nc(-c2cn(C)c3ncccc23)sc1C(=O)N1CCN(c2ccccc2)CC1` belongs 932 s; to `COc1cccc(CN2CCn3c(nnc3[C@@H]3C[C@@H](O)CN3C)C2)c1`, 574 s; to `Cc1ccc(Nc2c(-c3ccc(C)cc3)nc3ccccn23)cc1`, 741 s.

`O=c1c(O[C@@H]2OC([C@H](O)CO)[C@H](O)[C@H]2O)c(-c2ccc(O)c(O)c2)oc2cc(O)cc(O)c12` (stereo partly specified) registered an RP-LC retention time of 641 s. Then `CCCCN(C)C(=O)C1CCCN(c2ccc(-c3ccc(C)cc3)nn2)C1` (stereo unspecified), with 750 s; and `COc1cc(OC)cc(C(=O)N2CCN(c3cc(-c4cccnc4)[nH]n3)CC2)c1`, with 570 s; and `COc1ccc(OC)c(S(=O)(=O)N2CCc3nn(CC4CC4)c(=O)n3CC2)c1`, with 598 s.

As for `Cc1ccccc1OCC(=O)N1C[C@@H]2C[C@H](NC(=O)c3ccccc3)[C@H]1C2`, the RP-LC retention time was found to be 813 s. On to `Cc1ccc(C)c(-c2cc3c(=O)n(Cc4nc(-c5ccccc5Br)no4)ncn3n2)c1`, for which the RP-LC retention time was 1220 s. To `CCOc1ccc2ncc(S(=O)(=O)c3ccc(OC)cc3)c(N3CCN(CC)CC3)c2c1` belongs 660 s; to `CCC(C)NC(=O)c1nc(-c2ccnc(N3CCCCCC3)c2)no1` (stereo unspecified), 708 s; to `O=C(CSc1cc(N2CCN(c3ccccc3F)CC2)ncn1)Nc1ccc(Cl)cc1F`, 1310 s. To `CNC(=O)[C@@H]1C[C@H](Oc2cccnc2)CN1C(=O)C1CCC1` belongs 540 s; to `O=S1(=O)C[C@H](N2CCN(c3ccccn3)CC2)[C@@H](S(=O)(=O)c2ccc(Cl)cc2)C1`, 643 s; to `CC(C)CNC(=O)CCc1nc2ccccc2n(CC(=O)N2CCCc3ccccc32)c1=O`, 990 s. To `c1ccc2c(-c3nc(-c4ccc5c(c4)ncn5CCN4CCCCC4)no3)n[nH]c2c1` belongs 609 s. For the molecule `CCc1noc(NC(C)=O)c1-c1ccc(C)c(S(=O)(=O)Nc2ccc(F)c(Cl)c2)c1`, the RP-LC retention time worked out at 875 s. Then `Cc1ccn2cc(C(=O)NCCN3CCc4ccccc4C3)nc2c1`, with 565 s; and `Cc1cccnc1Nc1nc(-c2ccc(F)cc2)cs1`, with 870 s; and `CN(C)c1cc(C(N)=O)c2cccc(Cl)c2n1`, with 638 s.

Molecule `COc1cc(-c2nnc(/C=C/c3ccccc3)o2)cc(OC)c1OC` had an RP-LC retention time of 904 s.

The molecule `COc1cccc(-c2nc(-c3ccc4oc(C)nc4c3)no2)c1` came in with an RP-LC retention time of 1110 s. To `COc1ccc(C(=O)C(C)OC(=O)C(C)N2C(=O)c3ccccc3C2=O)cc1` (stereo unspecified) belongs 913 s. `CC(C)N1CCn2cc(S(=O)(=O)Nc3ccccc3F)cc2C1=O` showed an RP-LC retention time of 730 s. `COc1ccccc1-c1noc(C2CCCN2C(=O)Nc2cc(C)cc(C)c2)n1` (stereo unspecified) registered an RP-LC retention time of 957 s. To `O=C(CCc1conc1-c1ccccc1)NCc1ccc2c(c1)OCO2` belongs 806 s.

As to `O=C(NC1CC1)c1ccc(N2CCC(NCc3ccc(C(F)(F)F)cc3)C2)nc1` (stereo unspecified), the RP-LC retention time turned out to be 663 s. To `CN(CC1CCOC1)C(=O)c1cc(F)cc(F)c1` (stereo unspecified) belongs 690 s; to `Cc1nc2cc3c(cc2n1CC(=O)NCc1ccccc1Cl)OCCO3`, 645 s. Consider `CCc1nnc(C2CN(C)CC23CCN(S(=O)(=O)c2ccc(F)c(C)c2)CC3)o1` (stereo unspecified), for which the RP-LC retention time worked out at 634 s. Then `Cc1noc2nc(C)n(CC(=O)NCc3ccccc3)c(=O)c12`, with 716 s. Then `CC(C)n1cnc(S(=O)(=O)N2CCCC(C(=O)Nc3cccc(Cl)c3)C2)c1` (stereo unspecified), with 842 s; and `CCCNC(=O)C1CCCN(c2ccc(SCC(=O)Nc3c(F)cccc3F)nn2)C1` (stereo unspecified), with 628 s; and `Cc1ccn2cc(-c3ccc(NS(=O)(=O)c4cccc([N+](=O)[O-])c4)cc3)nc2n1`, with 662 s. In turn, `Cc1[nH]c2ccccc2c1C(=O)CSc1nnc2sc3ccccc3n12` returned an RP-LC retention time of 829 s. To `CCOC(=O)c1cc(S(=O)(=O)N2CCCC2C(=O)NCCC2=CCCCC2)cn1C` (stereo unspecified) belongs 985 s; to `CCN1C(=O)COc2ccc(-c3noc(C4CCN(C(C)=O)CC4)n3)cc21`, 744 s; to `Cn1nnc2c(SCC(=O)NCc3ccco3)ncnc21`, 631 s.

`COc1cc(OC)cc(C(=O)NC2CCN(Cc3c(C)noc3C)C2)c1` (stereo unspecified) came in with an RP-LC retention time of 613 s. To `Cc1ccccc1CNC(=O)C1CCN(S(=O)(=O)c2cc(C(=O)N3CCCC3)n(C)c2)CC1` belongs 738 s; to `COc1ccc(NC(=O)NCC23CCCC=C2NC(=O)CC3)cc1` (stereo unspecified), 593 s. Then `CCOC(=O)C1CCN(Cc2cn3c(-c4ccc(OC)cc4)nnc3s2)CC1`, with 563 s; and `Cc1nn(-c2nc3ccccc3[nH]2)c2c1C(=O)CC(c1ccc(F)cc1)C2` (stereo unspecified), with 1000 s; and `Cc1cc(C)c(NC(=O)Cn2cnc(C)c(C)c2=O)c(C)c1`, with 674 s. `COC1CCC12CCN(C(=O)CC(C)C)CC2` (stereo unspecified) registered an RP-LC retention time of 810 s. Then `Cc1cc(NC(=O)c2ccccc2)nc(C)n1`, with 667 s. To `CCS(=O)(=O)c1ccc2c(c1)N(Cc1nc(-c3ccccc3)no1)C(=O)CO2` belongs 865 s. To `Cc1cc(N2CCOCC2)n2nc(CN3CCc4ccccc4C3)nc2n1` belongs 590 s; to `CCOc1ccc(C2Cn3nnc(-c4nc(-c5ccc(OC)cc5)no4)c3CO2)cc1` (stereo unspecified), 1160 s; to `COc1ccc(OC)c(NC(=O)N2CCc3cn(C)c4cccc(c34)C2)c1`, 943 s. `O=C(Nc1cnc(-c2cccc(Cl)c2)nc1)C1CCCC1` gave an RP-LC retention time of 1100 s. Then `Cc1ccc(-c2nocc2CCC(=O)NCc2ccccc2)cc1`, with 910 s; and `CCOC(=O)C1CCN(C(=O)c2ccc3c(c2)CCCN3S(C)(=O)=O)CC1`, with 765 s; and `Cc1ncsc1CN1CC(n2cc(C(=O)NCC3CC3)nn2)C1`, with 575 s. Then `COc1ccc(-c2nnc(CC(=O)N3CCC4(CC3)OCCO4)o2)cc1`, with 681 s; and `Cc1nnc(C2CC3(CCN(CCO)CC3)CN2CCc2ccccc2)o1` (stereo unspecified), with 574 s.

The molecule `CCc1nnc2ccc(-c3noc(-c4ccc(F)cc4F)n3)cn12` displayed an RP-LC retention time of 879 s. As for `CCCn1c(=O)c(N2CCC(NC(=O)NCc3cccc(F)c3)CC2)nc2ccccc21`, the RP-LC retention time is 959 s. To `COCc1noc([C@@H]2CC(F)(F)CN2C(=O)c2conc2C)n1` belongs 679 s; to `COc1cccc(NC(=O)Cn2nc3cc(C)nc(Nc4ccccc4C)n3c2=O)c1`, 1010 s. Regarding `CCOC(=O)c1cn(CC(=O)NCCC(C)C)c2nc(C)ccc2c1=O`, the RP-LC retention time stood at 723 s.

Molecule `CCOC(=O)c1[nH]c(C)c(CCC(=O)Nc2ccc3c(c2)OCO3)c1C` gave an RP-LC retention time of 819 s.

With `Cc1cccc(N2CCN(C(=O)C3CCN(c4cncnc4N(C)C)CC3)CC2)c1C`, the RP-LC retention time was determined as 756 s. Then `CN1C(=O)c2cccnc2Sc2cc(NC(=O)c3ccccc3Cl)ccc21`, with 781 s; and `CCc1noc(-c2ccc(-n3ncc(C(=O)N(C)C)c3C)nc2)n1`, with 748 s. To `CC1CCN(c2ccc(-c3noc(CN(C)Cc4ccccc4)n3)cn2)CC1` belongs 912 s; to `Cn1nnc2cc(CNC(=O)c3ccc(F)cc3)ccc21`, 686 s; to `COc1ccc(S(=O)(=O)NCCc2cn(CC(C)C)c3ncccc23)cc1Cl`, 962 s.

The record behind these values is the METLIN SMRT retention time set (Domingo-Almenara et al. 2019).
